Measurements reported in US11155517B2, “4-substituted phenylamine derivatives and their use to protect crops by fighting undesired phytopathogenic micoorganisms” (PI INDUSTRIES LTD., priority 2016, dated 2021).

Columns and labels:
[1] = system: Botrytis cinera; test: Greenhouse Botrytis cinera test in tomato, preventive; assay type: in vivo; settings: 24 h, plants sprayed one day before inoculation, read-out: Efficacy (% control), disease severity vs untreated check
[2] = system: Botrytis cinerea; test: Botrytis cinerea (gray mold) in vitro test, radial growth on Potato Dextrose Agar; assay type: cell-based; settings: 168 h, 300 ppm, seven days, 22° C., read-out: % (control) compared to the untreated check (radial growth)
[3] = system: Alternaria solani; test: Greenhouse Alternaria solani test in tomato, preventive; assay type: in vivo; settings: 24 h, tomato plants sprayed one day before inoculation, read-out: Efficacy (% control), disease severity vs untreated check
Description: Compounds were dissolved in 2% DMSO/Acetone & then mixed with water to calibrated spray volume of 50 ml. This 50 ml spray solution was poured into the spray bottles for further applications. To test the preventive activity of compounds, healthy young Tomato plants raised in the greenhouse were sprayed with active compound preparation at the stated application rates inside the spray cabinets using hallowcone nozzles. One day after treatment, the plants were inoculated with spore suspension (2% Malt) containing 0.24×10^6 Alternaria solani inoculum. The inoculated plants were then kept in greenhouse chamber at 22-24° C. temperature and 90-95% relative humidity for disease expression. […] Efficacy (% control) of the compounds was calculated by comparing the disease rating in the treatment with untreated control. The sprayed plants were also assessed for compound's phytotoxic effects by recording symptoms like necrosis, chlorosis and stunting.

[4] = system: Alternaria solani; test: Alternaria solani (early blight of tomato/potato) in vitro test, radial growth on Potato Dextrose Agar; assay type: cell-based; settings: 168 h, 300 ppm, seven days, 25° C., read-out: % control compared to the untreated check (radial growth)
[5] = system: Pyricularia oryzae; test: microbe, parasite or virus in culture; assay type: cell-based; settings: 168 h, read-out: % control compared to the untreated check (radial growth)
[6] = system: Rhizoctonia solani; test: Rhizoctonia solani (rice sheath blight/potato black scurf) in vitro test, radial growth on Potato Dextrose Agar; assay type: cell-based; settings: 168 h, 300 ppm, seven days, 25° C., read-out: % control compared to the untreated check (radial growth)
[7] = system: Fusarium culmorum; test: Greenhouse Fusarium culmorum test in wheat, preventive; assay type: in vivo; settings: 24 h, read-out: Efficacy (% control), disease severity vs untreated check
Description: Compounds were dissolved in 2% DMSO/Acetone & then mixed with water to calibrated spray volume of 50 ml. This 50 ml spray solution was poured into the spray bottles for further applications.
To test the preventive activity of compounds, healthy young wheat plants raised in the greenhouse were sprayed with active compound preparation at the stated application rates inside the spray cabinets using hallowcone nozzles. One day after treatment, the plants were inoculated with spore suspension (2% Malt) containing 2×10^6 Fusarium culmorum inoculum. The inoculated plants were then kept in greenhouse chamber at 24° C. temperature and 80-90% relative humidity for disease expression.
A visual assessment of compound's performance was carried by rating the disease severity (0-100% scale) on treated plants on 3, 7, 10 and 15 days after application. Efficacy (% control) of the compounds was calculated by comparing the disease rating in the treatment with untreated control. The sprayed plants were also assessed for compound's phytotoxic effects by recording symptoms like necrosis, chlorosis and stunting.

[8] = system: Colletotrichum capsici; test: Colletotrichum capsici (anthracnose) in vitro test, radial growth on Potato Dextrose Agar; assay type: cell-based; settings: Colletotrichum truncatum, 168 h; 300 ppm; seven days, 25° C.; read-out: % control compared to the untreated check (radial growth)
[9] = system: Septoria lycopersici; test: Septoria lycopersici (leaf spot of tomato) in vitro test, radial growth on Potato Dextrose Agar; assay type: cell-based; settings: 168 h, seven days, 25° C., read-out: % control compared to the untreated check (radial growth)
[10] = system: Fusarium culmorum; test: Fusarium culmorum (foot rot of cereals) in vitro test, radial growth on Potato Dextrose Agar; assay type: cell-based; settings: Fusarium culmorum, 168 h, read-out: % control compared to the untreated check (radial growth)

Row | Compound | pest or weed control at 500 ppm [1] [%] | inhibition of growth at 300 ppm [2] [%] | pest or weed control at 500 ppm [3] [%] | inhibition of growth at 300 ppm [4] [%] | inhibition of growth at 300 ppm [5] [%] | inhibition of growth at 300 ppm [6] [%] | pest or weed control at 500 ppm [7] [%] | inhibition of growth at 300 ppm [8] [%] | inhibition of growth at 300 ppm [9] [%] | inhibition of growth at 300 ppm [10] [%]
1 | Cc1cc(N=CN2CCOCC2)c(Cl)cc1Cc1ccccc1Cl [Compound 40, N-(2-chloro-4-(2-chlorobenzyl)-5-methylphenyl)-1-morpholinomethanimine] | 70 to 100 | > 80 | 70 to 100 | – | – | – | – | – | – | –
2 | CCN(C)C=Nc1cc(C)c(C(OC)c2ccccc2)cc1C (stereo not shown) [Compound 2, N-ethyl-N′-(4-(methoxy(phenyl)methyl)-2,5-dimethylphenyl)-N-methylformimidamide] | 70 to 100 | – | 70 to 100 | > 75 | > 75 | > 80 | – | – | – | –
3 | CNC=Nc1cc(C)c(Cc2cccc(Br)c2F)cc1C [Compound 41, N′-(4-(3-bromo-2-fluorobenzyl)-2,5-dimethylphenyl)-N-methylformimidamide] | – | > 80 | 70 to 100 | > 75 | > 75 | > 80 | 70 to 100 | > 80 | > 70 | 75
4 | CCN(C)C=Nc1cc(C)c(Cc2ccc(Cl)cc2Cl)cc1Cl [Compound 179, N′-(2-chloro-4-(2,4-dichlorobenzyl)-5-methylphenyl)-N-ethyl-N-methylformimidamide] | 70 to 100 | > 80 | 70 to 100 | > 75 | > 75 | > 80 | – | > 80 | – | 75
5 | CCN(C)C=Nc1cc(C)c(/C(=N\C)c2ccccc2)cc1C [Compound 31, N′-(2,5-dimethyl-4-((Z)-(methylimino)(phenyl)methyl)phenyl)-N-ethyl-N-methylformimidamide] | 70 to 100 | – | 70 to 100 | > 75 | > 75 | > 80 | – | – | > 70 | 75
6 | CNC=Nc1cc(C)c(Cc2cccc(F)c2)cc1Cl [Compound 42, N′-(2-chloro-4-(3-fluorobenzyl)-5-methylphenyl)-N-methylformimidamide] | – | > 80 | 70 to 100 | > 75 | > 75 | > 80 | 70 to 100 | > 80 | > 70 | 75
7 | Cc1cc(N=CN2CCCCC2)c(C)cc1Cc1ccc(F)c(Cl)c1 [Compound 35, N-(4-(3-chloro-4-fluorobenzyl)-2,5-dimethylphenyl)-1-(piperidin-1-yl)methanimine] | – | > 80 | 70 to 100 | > 75 | > 75 | > 80 | 70 to 100 | > 80 | > 70 | –
8 | CCN(C)C=Nc1cc(C)c(Cc2ccc(C)cc2)cc1C [Compound 9, N′-(2,5-dimethyl-4-(4-methylbenzyl)phenyl)-N-ethyl-N-methylformimidamide] | 70 to 100 | > 80 | 70 to 100 | > 75 | > 75 | > 80 | – | > 80 | > 70 | 75
9 | CCN(C)C=Nc1cc(C)c(Cc2cc(Cl)ccc2Cl)cc1C [Compound 160, N′-(4-(2,5-dichlorobenzyl)-2,5-dimethylphenyl)-N-ethyl-N-methylformimidamide] | – | > 80 | 70 to 100 | > 75 | > 75 | > 80 | 70 to 100 | > 80 | > 70 | 75
10 | CCN(C)C=Nc1cc(C)c(Cc2ccccc2S(C)(=O)=O)cc1C [Compound 25, N′-(2,5-dimethyl-4-(2-(methylsulfonyl)benzyl)phenyl)-N-ethyl-N-methylformimidamide] | 70 to 100 | – | 70 to 100 | > 75 | > 75 | > 80 | – | > 80 | > 70 | –
11 | CCN(C)C=Nc1cc(C)c(Cc2ccccc2[N+](=O)[O-])cc1C [Compound 50, N′-(2,5-dimethyl-4-(2-nitrobenzyl)phenyl)-N-ethyl-N-methylformimidamide] | – | > 80 | 70 to 100 | > 75 | > 75 | > 80 | – | > 80 | > 70 | 75
12 | CCN(C)C=Nc1cc(C)c(Cc2cc(F)ccc2Cl)cc1Cl [Compound 178, N′-(2-chloro-4-(2-chloro-5-fluorobenzyl)-5-methylphenyl)-N-ethyl-N-methylformimidamide] | – | > 80 | 70 to 100 | > 75 | > 75 | > 80 | – | > 80 | > 70 | 75
13 | CCN(C)C=Nc1cc(C)c(Cc2cccc(Br)c2F)cc1C [Compound 27, N′-(4-(3-bromo-2-fluorobenzyl)-2,5-dimethylphenyl)-N-ethyl-N-methylformimidamide] | 70 to 100 | > 80 | 70 to 100 | > 75 | > 75 | > 80 | – | > 80 | > 70 | 75
14 | CCN(C)C=Nc1cc(F)c(Cc2ccc(C)cc2)cc1C [Compound 175, N-ethyl-N′-(5-fluoro-2-methyl-4-(4-methylbenzyl)phenyl)-N-methylformimidamide] | – | > 80 | 70 to 100 | > 75 | > 75 | > 80 | – | > 80 | > 70 | 75
15 | CCN(C)C=Nc1cc(C)c(Cc2ccc(F)cc2F)cc1Cl [Compound 180, N′-(2-chloro-4-(2,4-difluorobenzyl)-5-methylphenyl)-N-ethyl-N-methylformimidamide] | 70 to 100 | > 80 | 70 to 100 | > 75 | > 75 | > 80 | – | > 80 | – | 75
16 | CCN(C)C=Nc1cc(C)c(Cc2cccc(F)c2)cc1C [Compound 29, N-ethyl-N′-(4-(3-fluorobenzyl)-2,5-dimethylphenyl)-N-methylformimidamide] | 70 to 100 | > 80 | 70 to 100 | > 75 | > 75 | > 80 | – | > 80 | > 70 | 75
